US12264159B2, “Functionalized heterocycles as antiviral agents” (Enanta Pharmaceuticals, Inc., priority 2018, dated 2025)

How the values were obtained:
[1] = Compound induced cellular toxicity in HepG2 cells, ATPlite 1Step; type: cell-based; settings: human, three days exposure, 50% reduction of total ATP vs no drug controls
Method: At day 3, post seeding cells are treated with ATPlite 1Step according to the manufacturer's instructions.

HBV in 2.2.15 cells = test: 2.2.15 cells: viral product in cell lysates quantified via quantitative real time PCR; type: cell-based, hepatitis B virus (HBV); settings: Hepatitis B virus, 120 h, day 5 post treatment, 50% reduction of viral product vs no drug controls, readout (qPCR, HBsAg or HBeAg) not specified for the column
Procedure, shortened: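 2.2.15 cells (35,000/well, DMEM/F12, 10% FBS, G418) were treated with 5-fold serial compound dilutions, 0.5% DMSO final. After 5 days, lysates were quantified by qPCR, or supernatant HBsAg/HBeAg by ELISA; EC50 is the concentration giving 50% reduction versus no-drug controls.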

SMILES | CC50 at 3 days [1] [µM] | EC50 (HBV in 2.2.15 cells) [µM]
CC(C)[C@@H]1Cn2nc(-c3ccccc3)c(-c3ccccc3)c2-c2cc(=O)c(-c3ncn[nH]3)cn21 [Example 192, (R)-6-isopropyl-1,2-diphenyl-9-(1H-1,2,4-triazol-5-yl)-5,6-dihydro-10H-pyrazolo[1,5-a]pyrido[2,1-c]pyrazin-10-one] | > 25 | < 0.1
CC(C)(C)[C@@H]1Cn2nc(C3CC3)c(-c3cncs3)c2-c2cc(=O)c(C(=O)O)cn21 [Example 163, (R)-6-(tert-butyl)-2-cyclopropyl-10-oxo-1-(thiazol-5-yl)-5,6-dihydro-10H-pyrazolo[1,5-a]pyrido[2,1-c]pyrazine-9-carboxylic acid] | > 25 | < 0.1
Cc1ncc(-c2cc3n(n2)C[C@@H](C(C)(C)C)n2cc(C(=O)O)c(=O)cc2-3)s1 [Example 19, (R)-6-(tert-butyl)-2-(2-methylthiazol-5-yl)-10-oxo-5,6-dihydro-10H-pyrazolo[1,5-a]pyrido[2,2-c]pyrazine-12-carboxylic acid] | > 25 | < 0.1
CC(C)(C)[C@@H]1Cn2nc(-c3ccoc3)c(-c3ccoc3)c2-c2cc(=O)c(C(=O)O)cn21 [Example 96, (R)-6-(tert-butyl)-1,2-di(furan-3-yl)-10-oxo-5,6-dihydro-10H-pyrazolo[1,5-a]pyrido[2,1-c]pyrazine-9-carboxylic acid] | > 25 | < 0.1
CC(C)(C)[C@@H]1Cn2nc(C3CC3)c(-c3ccc(F)c(F)c3)c2-c2cc(=O)c(C(=O)O)cn21 [Example 151, (R)-6-(tert-butyl)-2-cyclopropyl-1-(3,4-difluorophenyl)-10-oxo-5,6-dihydro-10H-pyrazolo[1,5-a]pyrido[2,1-c]pyrazine-9-carboxylic acid] | > 25 | < 0.1
CC(C)(C)[C@@H]1Cn2nc(-c3cccc4occc34)cc2-c2cc(=O)c(C(=O)O)cn21 [Example 28, (R)-2-(benzofuran-4-yl)-6-(tert-butyl)-10-oxo-5,6-dihydro-10H-pyrazolo[1,5-a]pyrido[2,2-c]pyrazine-12-carboxylic acid] | > 25 | < 0.1
CC(C)[C@@H]1Cn2nc(-c3ccc(O)cc3)c(-c3ccc(O)cc3)c2-c2cc(=O)c(C(=O)O)cn21 [Example 172, (R)-1,2-bis(4-hydroxyphenyl)-6-isopropyl-10-oxo-5,6-dihydro-10H-pyrazolo[1,5-a]pyrido[2,1-c]pyrazine-9-carboxylic acid] | > 25 | < 0.1
CC(C)[C@@H]1Cn2nc(-c3ccc(O)cc3)c(-c3ccc(O)cc3)c2-c2c(F)c(=O)c(C(=O)O)cn21 [Example 191, (R)-11-fluoro-1,2-bis(4-hydroxyphenyl)-6-isopropyl-10-oxo-5,6-dihydro-10H-pyrazolo[1,5-a]pyrido[2,1-c]pyrazine-9-carboxylic acid] | > 25 | < 0.1
CC(C)(C)[C@@H]1Cn2nc(-c3ccc(F)cc3)c(-c3ccc(F)cc3)c2-c2cc(=O)c(C(=O)O)cn21 [Example 91, (R)-6-(tert-butyl)-1,2-bis(4-fluorophenyl)-10-oxo-5,6-dihydro-10H-pyrazolo[1,5-a]pyrido[2,1-c]pyrazine-9-carboxylic acid] | > 25 | < 0.1
CC(C)[C@@H]1Cn2nc(C3CC3)c(-c3ccccc3F)c2-c2cc(=O)c(C(=O)O)cn21 [Example 129, (R)-2-cyclopropyl-1-(2-fluorophenyl)-6-isopropyl-10-oxo-5,6-dihydro-10H-pyrazolo[1,5-a]pyrido[2,1-c]pyrazine-9-carboxylic acid] | > 25 | < 0.1
Cc1cccc(-c2c(-c3ccc(F)cc3)nn3c2-c2cc(=O)c(C(=O)O)cn2[C@H](C(C)(C)C)C3)c1 [Example 170, (R)-6-(tert-butyl)-2-(4-fluorophenyl)-10-oxo-1-(m-tolyl)-5,6-dihydro-10H-pyrazolo[1,5-a]pyrido[2,1-c]pyrazine-9-carboxylic acid] | 10 to 25 | < 0.1
CC(C)(C)[C@@H]1Cn2ncc(-c3ccc(F)cc3)c2-c2cc(=O)c(C(=O)O)cn21 [Example 101, (R)-6-(tert-butyl)-1-(4-fluorophenyl)-10-oxo-5,6-dihydro-10H-pyrazolo[1,5-a]pyrido[2,1-c]pyrazine-9-carboxylic acid] | > 25 | < 0.1
CC(C)(C)[C@@H]1Cn2nc(-c3c(F)cccc3C(N)=O)cc2-c2cc(=O)c(C(=O)O)cn21 [Example 53, (R)-6-(tert-butyl)-2-(2-carbamoyl-6-fluorophenyl)-10-oxo-5,6-dihydro-10H-pyrazolo[1,5-a]pyrido[2,2-c]pyrazine-12-carboxylic acid] | > 25 | 0.2 to 1
CC(C)[C@@H]1Cn2nc(C3CC3)c(-c3ccc(O)cc3)c2-c2cc(=O)c(C(=O)O)cn21 [Example 143, (R)-2-cyclopropyl-1-(4-hydroxyphenyl)-6-isopropyl-10-oxo-5,6-dihydro-10H-pyrazolo[1,5-a]pyrido[2,1-c]pyrazine-9-carboxylic acid] | > 25 | < 0.1
CC(C)[C@@H]1Cn2nc(C3CC3)c(-c3ccsc3)c2-c2cc(=O)c(C(=O)O)cn21 [Example 128, (R)-2-cyclopropyl-6-isopropyl-10-oxo-1-(thiophen-3-yl)-5,6-dihydro-10H-pyrazolo[1,5-a]pyrido[2,1-c]pyrazine-9-carboxylic acid] | > 25 | < 0.1
CC(C)(C)[C@@H]1Cn2nc(-c3ccc4c(c3F)OCO4)cc2-c2cc(=O)c(C(=O)O)cn21 [Example 55, (R)-6-(tert-butyl)-2-(4-fluorobenzo[d][1,3]dioxol-5-yl)-10-oxo-5,6-dihydro-10H-pyrazolo[1,5-a]pyrido[2,2-c]pyrazine-12-carboxylic acid] | > 25 | < 0.1
CC(C)(C)[C@@H]1Cn2nc(C3CC3)c(-c3ccc(F)cc3)c2-c2cc(=O)c(C(=O)O)cn21 [Example 146, (R)-6-(tert-butyl)-2-cyclopropyl-1-(4-fluorophenyl)-10-oxo-5,6-dihydro-10H-pyrazolo[1,5-a]pyrido[2,1-c]pyrazine-9-carboxylic acid] | > 25 | < 0.1
CC(C)[C@@H]1Cn2nc(-c3ccc(F)cc3)c(-c3ccc(F)cc3)c2-c2c(F)c(=O)c(C(=O)O)cn21 [Example 187, (R)-11-fluoro-1,2-bis(4-fluorophenyl)-6-isopropyl-10-oxo-5,6-dihydro-10H-pyrazolo[1,5-a]pyrido[2,1-c]pyrazine-9-carboxylic acid] | 10 to 25 | < 0.1
COc1ccccc1-c1cnn2c1-c1cc(=O)c(C(=O)O)cn1[C@H](C(C)(C)C)C2 [Example 112, (R)-6-(tert-butyl)-1-(2-methoxyphenyl)-10-oxo-5,6-dihydro-10H-pyrazolo[1,5-a]pyrido[2,1-c]pyrazine-9-carboxylic acid] | > 25 | < 0.1
CC(C)(C)[C@@H]1Cn2nc(C3CC3)c(-c3ccc(F)cc3)c2-c2cc(=O)c(-c3ncn[nH]3)cn21 [Example 196, (R)-6-(tert-butyl)-2-cyclopropyl-1-(4-fluorophenyl)-9-(1H-1,2,4-triazol-5-yl)-5,6-dihydro-10H-pyrazolo[1,5-a]pyrido[2,1-c]pyrazin-10-one] | > 25 | < 0.1
CC(C)(C)[C@@H]1Cn2nc(-c3cnc(NC4CC4)nc3)cc2-c2cc(=O)c(C(=O)O)cn21 [Example 15, (R)-6-(tert-butyl)-2-(2-(cyclopropylamino)pyrimidin-5-yl)-10-oxo-5,6-dihydro-10H-pyrazolo[1,5-a]pyrido[2,2-c]pyrazine-12-carboxylic acid] | > 25 | < 0.1
COc1cccc(-c2cc3n(n2)C[C@@H](C(C)(C)C)n2cc(C(=O)O)c(=O)cc2-3)c1C#N [Example 45, (R)-6-(tert-butyl)-2-(2-cyano-3-methoxyphenyl)-10-oxo-5,6-dihydro-10H-pyrazolo[1,5-a]pyrido[2,2-c]pyrazine-12-carboxylic acid] | > 25 | < 0.1
Cc1ccc(-c2c(C3CC3)nn3c2-c2cc(=O)c(C(=O)O)cn2[C@H](C(C)(C)C)C3)cc1 [Example 154, (R)-6-(tert-butyl)-2-cyclopropyl-10-oxo-1-(p-tolyl)-5,6-dihydro-10H-pyrazolo[1,5-a]pyrido[2,1-c]pyrazine-9-carboxylic acid] | > 25 | < 0.1
CC(C)(C)[C@@H]1Cn2nc(-c3ccc(F)cc3)c(-c3ccc(F)cc3)c2-c2cc(=O)c(-c3ncn[nH]3)cn21 [Example 194, (R)-6-(tert-butyl)-1,2-bis(4-fluorophenyl)-9-(1H-1,2,4-triazol-5-yl)-5,6-dihydro-10H-pyrazolo[1,5-a]pyrido[2,1-c]pyrazin-10-one] | 10 to 25 | < 0.1
Cn1cc(-c2cc3n(n2)C[C@@H](C(C)(C)C)n2cc(C(=O)O)c(=O)cc2-3)cn1 [Example 5, (R)-6-(tert-butyl)-2-(2-methyl-1H-pyrazol-4-yl)-10-oxo-5,6-dihydro-10H-pyrazolo[1,5-a]pyrido[2,2-c]pyrazine-12-carboxylic acid] | > 25 | < 0.1
CC(C)(C)[C@@H]1Cn2nc(-c3ccc(F)nc3)cc2-c2cc(=O)c(C(=O)O)cn21 [Example 38, (R)-6-(tert-butyl)-2-(6-fluoropyridin-3-yl)-10-oxo-5,6-dihydro-10H-pyrazolo[1,5-a]pyrido[2,2-c]pyrazine-12-carboxylic acid] | > 25 | < 0.1
CC(C)(C)[C@@H]1Cn2nc(-c3cc(F)c(F)cc3O)cc2-c2cc(=O)c(C(=O)O)cn21 [Example 66, (R)-6-(tert-butyl)-2-(4,5-difluoro-2-hydroxyphenyl)-10-oxo-5,6-dihydro-10H-pyrazolo[1,5-a]pyrido[2,2-c]pyrazine-12-carboxylic acid] | > 25 | < 0.1
